Results taken from US20260098026A1, “M4 ACTIVATORS/MODULATORS AND USES THEREOF” (Cerevel Therapeutics, LLC, priority 2022, published 2026).
One block for each compound: values may come before it.

Experiments:
[1] = biological target: T1, M3 muscarinic acetylcholine receptor (mAChR) (Homo sapiens, UniProt P20309); test: FLIPR calcium assay (Fluo 8), M3-overexpressing CHO-K1 cells; type: cell-based
T1 construct: expressed in transfected cells; host or cells: CHO-K1
Summary of the method: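 CHO-K1 cells overexpressing each human receptor seeded at 15,000 per well, grown overnight at 37° C., 5% CO2, then loaded with Fluo-8 for 30 min. Compounds in HBSS added and calcium response read on FLIPR; EC50 and Emax calculated per subtype.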

M4 mAChR = biological target: T2, M4 mAChR (Homo sapiens, UniProt P08173); test: cAMP TR-FRET assay with forskolin, M4-overexpressing CHO-K1 cells; type: cell-based
T2 construct: expressed in transfected cells; host or cells: CHO-K1
T2 sequence (P08173 1-479): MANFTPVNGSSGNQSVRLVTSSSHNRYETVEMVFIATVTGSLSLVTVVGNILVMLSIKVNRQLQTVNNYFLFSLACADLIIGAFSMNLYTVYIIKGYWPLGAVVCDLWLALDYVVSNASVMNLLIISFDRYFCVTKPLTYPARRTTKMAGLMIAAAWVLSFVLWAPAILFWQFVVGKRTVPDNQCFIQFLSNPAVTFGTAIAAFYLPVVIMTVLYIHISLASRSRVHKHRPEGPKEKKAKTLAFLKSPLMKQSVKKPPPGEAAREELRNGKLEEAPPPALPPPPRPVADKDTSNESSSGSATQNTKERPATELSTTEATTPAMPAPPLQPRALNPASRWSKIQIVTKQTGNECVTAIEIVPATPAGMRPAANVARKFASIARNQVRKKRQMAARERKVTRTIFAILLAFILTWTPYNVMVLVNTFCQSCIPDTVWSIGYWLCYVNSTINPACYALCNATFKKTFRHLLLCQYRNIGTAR
Summary of the method: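 CHO-K1 cells overexpressing the receptor were stimulated with forskolin to raise cAMP, so that Gi-mediated agonist decreases could be measured. cAMP was quantified by TR-FRET competition between cellular cAMP and labelled donor for anti-cAMP antibody, giving potency and efficacy.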

T1 sequence (P20309 whole entry): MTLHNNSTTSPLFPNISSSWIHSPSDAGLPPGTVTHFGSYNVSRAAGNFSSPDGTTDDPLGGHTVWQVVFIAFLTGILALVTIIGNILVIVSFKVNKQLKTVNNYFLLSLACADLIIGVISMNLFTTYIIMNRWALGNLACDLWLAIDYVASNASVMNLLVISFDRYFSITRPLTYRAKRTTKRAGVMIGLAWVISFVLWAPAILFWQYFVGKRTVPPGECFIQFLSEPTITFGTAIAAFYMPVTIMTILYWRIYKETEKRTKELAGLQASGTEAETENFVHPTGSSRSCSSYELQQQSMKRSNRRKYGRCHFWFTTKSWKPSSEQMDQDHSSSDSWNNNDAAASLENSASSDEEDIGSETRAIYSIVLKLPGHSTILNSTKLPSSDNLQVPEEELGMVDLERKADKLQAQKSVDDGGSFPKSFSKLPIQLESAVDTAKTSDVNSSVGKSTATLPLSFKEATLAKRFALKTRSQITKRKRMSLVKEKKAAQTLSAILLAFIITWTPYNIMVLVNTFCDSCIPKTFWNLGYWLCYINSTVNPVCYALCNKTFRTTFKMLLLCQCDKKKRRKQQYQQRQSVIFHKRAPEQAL

Compound: CCOC(=O)N1CC2(CC[C@@H](N3CCN(c4cc(F)cnc4-c4cnc(OC)c(C)c4)CC3)C2)C1 [Compound A111]
EC50 ([1]; FLIPR calcium): > 10 µM
Emax (M4 mAChR; cAMP TR-FRET with forskolin): 80 to 100%

Compound: CCOC(=O)N1CC2(CC[C@@H](N3CCN(c4cc(Cl)cnc4-c4cnn(C(C)C)n4)CC3)C2)C1 [Compound A258]
EC50 ([1]; FLIPR): > 10 µM
Emax (M4 mAChR; cAMP assay): 50 to 79.9%

Compound: CCOC(=O)N1CC2(CC[C@@H](N3CCN(c4cc(F)cnc4-c4cccc5ncnn45)CC3)C2)C1 [Compound A178]
EC50 ([1]; FLIPR): > 10 µM
Emax (M4 mAChR; cAMP assay): 19 to 49.9%

Compound: CCOC(=O)N1CC2(CC[C@@H](N3CCN(c4cc(F)cnc4-c4c[nH]nc4C4CC4)CC3)C2)C1 [Compound A170]
EC50 ([1]; FLIPR): > 10 µM
Emax (M4 mAChR; cAMP assay): 80 to 100%

Compound: CCOC(=O)N1CC2(CC[C@@H](N3CCN(c4cccnc4-c4cncc(C)c4)CC3)C2)C1 [Compound A25]
EC50 ([1]; FLIPR calcium): > 10 µM
Emax (M4 mAChR; cAMP TR-FRET with forskolin): 80 to 100%

Compound: CCOC(=O)N1CC2(CC[C@@H](N3CCN(c4cc(F)cnc4-c4cccc(CCO)c4)CC3)C2)C1 [Compound A90]
EC50 ([1]; FLIPR calcium): > 10 µM
Emax (M4 mAChR; cAMP TR-FRET with forskolin): 80 to 100%

Compound: CCOC(=O)N1CC2(CC[C@@H](N3CCN(c4cc(F)cnc4-c4cccc5nn(C)cc45)CC3)C2)C1 [Compound A60]
EC50 ([1]; FLIPR calcium): > 10 µM
Emax (M4 mAChR; cAMP TR-FRET with forskolin): 80 to 100%

Compound: CCOC(=O)N1CC2(CC[C@@H](N3CCN(c4cc(F)cnc4-c4ccc5c(c4)OCCN5)CC3)C2)C1 [Compound A95]
EC50 ([1]; FLIPR calcium): > 10 µM
Emax (M4 mAChR; cAMP TR-FRET with forskolin): 80 to 100%

Compound: CCOC(=O)N1CC2(CCC(N3[C@@H]4CC[C@H]3CN(c3cc(F)cnc3-c3cnccn3)C4)C2)C1 (single isomer, unassigned) [Compound A223]
EC50 ([1]; FLIPR): > 10 µM
Emax (M4 mAChR; cAMP assay): 80 to 100%

Compound: CCOC(=O)N1CC2(CC[C@@H](N3CCN(c4cc(F)cnc4-c4cccc5c4cnn5C)CC3)C2)C1 [Compound A58]
EC50 ([1]; FLIPR calcium): > 10 µM
Emax (M4 mAChR; cAMP TR-FRET with forskolin): 80 to 100%

Compound: CCOC(=O)N1CC2(CC[C@@H](N3CCN(c4cc(F)cnc4-c4cccc(CO)c4)CC3)C2)C1 [Compound A57]
EC50 ([1]; FLIPR calcium): > 10 µM
Emax (M4 mAChR; cAMP TR-FRET with forskolin): 80 to 100%

Compound: CCOC(=O)N1CC2(CC[C@@H](N3CCN(c4cc(Cl)cnc4C4CCOCC4)CC3)C2)C1 (single isomer, unassigned) [Compound A15]
EC50 ([1]; FLIPR calcium): > 10 µM
Emax (M4 mAChR; cAMP TR-FRET with forskolin): 80 to 100%

Compound: CCOC(=O)N1CC2(CC[C@@H](N3CCN(c4cc(F)cnc4C4=CCN(C)CC4)CC3)C2)C1 [Compound A197]
EC50 ([1]; FLIPR): > 10 µM
Emax (M4 mAChR; cAMP assay): 80 to 100%

Other lines, results leading:

EC50 ([1]; FLIPR calcium): > 10 µM
Emax (M4 mAChR; cAMP TR-FRET with forskolin): 80 to 100%
Compound: CCOC(=O)N1CC2(CC[C@@H](N3CCN(c4cc(F)cnc4-c4cnccn4)CC3)C2)C1 [Compound A6, (R)-ethyl 6-(4-(5-fluoro-2-(pyrazin-2-yl)pyridin-3-yl)piperazin-1-yl)-2-azaspiro[3.4]octane-2-carboxylate]

EC50 ([1]; FLIPR): > 10 µM
Emax (M4 mAChR; cAMP assay): 80 to 100%
Compound: CCOC(=O)N1CC2(CC[C@@H](N3CCN(c4cc(F)cnc4-c4ccc(OC)nc4)CC3)C2)C1 [Compound A188]

EC50 ([1]; FLIPR calcium): > 10 µM
Emax (M4 mAChR; cAMP TR-FRET with forskolin): 80 to 100%
Compound: CCOC(=O)N1CC2(CC[C@@H](N3CCN(c4cc(F)cnc4-c4ccc(C#N)nc4)CC3)C2)C1 [Compound A29]

EC50 ([1]; FLIPR): > 10 µM
Emax (M4 mAChR; cAMP assay): 80 to 100%
Compound: CCOC(=O)N1CC2(CC[C@@H](N3CCN(c4cc(F)cnc4-c4ccc(F)cn4)CC3)C2)C1 [Compound A218]

EC50 ([1]; FLIPR calcium): > 10 µM
Emax (M4 mAChR; cAMP TR-FRET with forskolin): 80 to 100%
Compound: CCOC(=O)N1CC2(CC[C@@H](N3CCN(c4cc(F)cnc4-c4ccc(OCC)nc4)CC3)C2)C1 [Compound A107]

EC50 ([1]; FLIPR calcium): > 10 µM
Emax (M4 mAChR; cAMP TR-FRET with forskolin): 80 to 100%
Compound: CCOC(=O)N1CC2(CC[C@@H](N3CCN(c4cc(F)cnc4-c4cccc5n[nH]cc45)CC3)C2)C1 [Compound A62]

EC50 ([1]; FLIPR calcium): > 10 µM
Emax (M4 mAChR; cAMP TR-FRET with forskolin): 80 to 100%
Compound: CCOC(=O)N1CC2(CC[C@@H](N3CCN(c4cc(F)cnc4-c4ccncc4C#N)CC3)C2)C1 [Compound A64]

EC50 ([1]; FLIPR calcium): > 10 µM
Emax (M4 mAChR; cAMP TR-FRET with forskolin): 80 to 100%
Compound: CCOC(=O)N1CC2(CC[C@@H](N3CCN(c4cc(F)cnc4-c4cc(O)ccc4F)CC3)C2)C1 [Compound A127]

EC50 ([1]; FLIPR calcium): > 10 µM
Emax (M4 mAChR; cAMP TR-FRET with forskolin): 80 to 100%
Compound: CCOC(=O)N1CC2(CC[C@@H](N3CCN(c4cc(F)cnc4-c4ccc(F)cc4CO)CC3)C2)C1 [Compound A147]

EC50 ([1]; FLIPR calcium): > 10 µM
Emax (M4 mAChR; cAMP TR-FRET with forskolin): 80 to 100%
Compound: CCOC(=O)N1CC2(CC[C@@H](N3CCN(c4cc(F)cnc4-c4ccnc(C)c4)CC3)C2)C1 [Compound A98]

EC50 ([1]; FLIPR calcium): > 10 µM
Emax (M4 mAChR; cAMP TR-FRET with forskolin): 80 to 100%
Compound: CCOC(=O)N1CC2(CC[C@@H](N3CCN(c4cc(F)cnc4-c4cc(C)nc(F)c4)CC3)C2)C1 [Compound A125]
